# Like-named read-outs stand apart in the source and are kept apart here.
# Columns and labels:
# SmChiA = target: T1, SmChiA (Serratia marcescens, UniProt P07254); assay: Chitinase inhibition assay and Ki determination (MU-β-(GlcNAc)2 substrate, Dixon plot), SmChiA; type: biochemical; details: for inhibition at 10 µM: 10 μM inhibitor, 10 nM enzyme, 4 μM MU-β-(GlcNAc)2, pH 6.0, 30 °C, 20 min; for Ki: Dixon plot, three substrate concentrations
# T1 construct: made in house; host or cells: Escherichia coli BL21(DE3)
# Experimental: (§1) SmChiA was expressed in Escherichia coli BL21(DE3), HsChit1 and OfChi-h were overexpressed in Pichia pastoris GS115. The Escherichia coli BL21(DE3) strain was purchased from TaKaRa Biotech (Dalian, […]) while the Pichia pastoris GS115 strain was obtained from Invitrogen (Thermo Fisher Scientific, CA, USA), both of which were cultured and handled according to the protocols provided by suppliers. All chitinases were purified using immobilised metal ion affinity chromatography as previously described. Briefly, solid ammonium sulphate was slowly added to the culture supernatant to achieve 75% saturation. After incubation at 4 °C for 24 h, the precipitated proteins were collected by centrifugation at 12,000 × g for 30 min at 4 °C. The pellet was resuspended thoroughly in buffer A (20 mM sodium phosphate, 0.5 M sodium chloride, pH 7.4), and the solution was centrifuged again at 12,000 × g for 15 min at 4 °C to remove insoluble material. The clarified supernatant was loaded onto a 5 ml HisTrap™ Crude affinity column (GE Healthcare) that had been pre-equilibrated with buffer A. The column was subsequently washed with buffer A containing 75 mM imidazole to remove non-specifically bound proteins. Recombinant chitinases were eluted using buffer A containing 250 mM imidazole. The expressed proteins were quantified using a BCA protein assay kit (TaKaRa Biotech, China). And their purities were determined by SDS-PAGE and found to be >95% in all cases.
# (§2) Chitinase activities for SmChiA, HsChit1 and OfChi-h were determined using 4-methylumbelliferyl-N, N′-diacetyl-β-D-chitobioside (MU-β-(GlcNAc)2) (purchased from Sigma) as a substrate. The final reaction mixture volume used for inhibitor screening was 100 μL, consisting of 10 nM enzyme, 4 μM MU-β-(GlcNAc)2, 10 μM inhibitor, and 2% DMSO in a 20 mM sodium phosphate buffer (pH 6.0). The reaction in the absence of inhibitor was used as a positive control. After incubation at 30 °C for 20 min, 0.5 M sodium carbonate was added to the reaction mixture, and the fluorescence produced by the released 4-MU was quantified with a Varioskan Flash microplate reader (Thermo Fisher Scientific) using excitation and emission wavelengths of 360 and 450 nm, respectively. Experiments were performed in triplicate unless specified otherwise. For Ki value determination, the inhibitor concentration was varied in the above reaction, and different concentrations of substrate (2–8 μM) were used. The amount of released 4-MU was quantified as above, and the Ki value and the mode of inhibition were determined using the Dixon plot.
# OfChi-h [1] = target: T2, OfChi-h (Ostrinia furnacalis, UniProt Q4AE59); assay: Chitinase inhibition assay and Ki determination (MU-β-(GlcNAc)2 substrate, Dixon plot), OfChi-h; type: biochemical; details: for inhibition at 10 µM: 10 μM inhibitor, 10 nM enzyme, 4 μM MU-β-(GlcNAc)2, pH 6.0, 30 °C, 20 min; for Ki: Dixon plot, substrate 2–8 μM
# T2 construct: made in house; host or cells: Pichia pastoris GS115
# Experimental: as §1, §2
# OfChi-h [2] = target: T2, OfChi-h; details: read-out: OfChi-h Ki; cited from earlier work
# HsChit1 = target: T3, HsChit1 (Homo sapiens, UniProt Q13231); assay: Chitinase inhibition assay and Ki determination (MU-β-(GlcNAc)2 substrate, Dixon plot), HsChit1; type: biochemical; details: three substrate concentrations
# T3 construct: made in house; host or cells: Pichia pastoris GS115
# Experimental: SmChiA was expressed in Escherichia coli BL21(DE3), HsChit1 and OfChi-h were overexpressed in Pichia pastoris GS115. The Escherichia coli BL21(DE3) strain was purchased from TaKaRa Biotech (Dalian, […]) while the Pichia pastoris GS115 strain was obtained from Invitrogen (Thermo Fisher Scientific, CA, USA), both of which were cultured and handled according to the protocols provided by suppliers. All chitinases were purified using immobilised metal ion affinity chromatography as previously described. Briefly, solid ammonium sulphate was slowly added to the culture supernatant to achieve 75% saturation. After incubation at 4 °C for 24 h, the precipitated proteins were collected by centrifugation at 12,000 × g for 30 min at 4 °C. […] The expressed proteins were quantified using a BCA protein assay kit (TaKaRa Biotech, China). And their purities were determined by SDS-PAGE and found to be >95% in all cases.
# Chitinase activities for SmChiA, HsChit1 and OfChi-h were determined using 4-methylumbelliferyl-N, N′-diacetyl-β-D-chitobioside (MU-β-(GlcNAc)2) (purchased from Sigma) as a substrate. […] After incubation at 30 °C for 20 min, 0.5 M sodium carbonate was added to the reaction mixture, and the fluorescence produced by the released 4-MU was quantified with a Varioskan Flash microplate reader (Thermo Fisher Scientific) using excitation and emission wavelengths of 360 and 450 nm, respectively. […]
# T1 sequence (P07254 24-563): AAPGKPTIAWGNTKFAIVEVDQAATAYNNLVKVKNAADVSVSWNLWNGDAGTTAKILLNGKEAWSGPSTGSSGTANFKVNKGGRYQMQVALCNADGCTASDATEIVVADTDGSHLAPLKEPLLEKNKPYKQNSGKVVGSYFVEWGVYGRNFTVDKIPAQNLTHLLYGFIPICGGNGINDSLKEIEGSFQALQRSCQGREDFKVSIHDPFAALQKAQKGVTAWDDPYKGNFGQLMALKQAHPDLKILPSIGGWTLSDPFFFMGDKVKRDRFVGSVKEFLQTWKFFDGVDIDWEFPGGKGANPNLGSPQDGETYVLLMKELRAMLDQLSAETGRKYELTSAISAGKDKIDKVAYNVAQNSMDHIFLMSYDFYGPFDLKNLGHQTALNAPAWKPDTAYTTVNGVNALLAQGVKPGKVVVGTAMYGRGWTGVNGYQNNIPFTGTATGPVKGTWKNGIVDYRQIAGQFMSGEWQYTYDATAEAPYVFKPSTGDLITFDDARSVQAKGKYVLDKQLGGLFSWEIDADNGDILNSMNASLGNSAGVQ
# T2 sequence (Q4AE59 18-553): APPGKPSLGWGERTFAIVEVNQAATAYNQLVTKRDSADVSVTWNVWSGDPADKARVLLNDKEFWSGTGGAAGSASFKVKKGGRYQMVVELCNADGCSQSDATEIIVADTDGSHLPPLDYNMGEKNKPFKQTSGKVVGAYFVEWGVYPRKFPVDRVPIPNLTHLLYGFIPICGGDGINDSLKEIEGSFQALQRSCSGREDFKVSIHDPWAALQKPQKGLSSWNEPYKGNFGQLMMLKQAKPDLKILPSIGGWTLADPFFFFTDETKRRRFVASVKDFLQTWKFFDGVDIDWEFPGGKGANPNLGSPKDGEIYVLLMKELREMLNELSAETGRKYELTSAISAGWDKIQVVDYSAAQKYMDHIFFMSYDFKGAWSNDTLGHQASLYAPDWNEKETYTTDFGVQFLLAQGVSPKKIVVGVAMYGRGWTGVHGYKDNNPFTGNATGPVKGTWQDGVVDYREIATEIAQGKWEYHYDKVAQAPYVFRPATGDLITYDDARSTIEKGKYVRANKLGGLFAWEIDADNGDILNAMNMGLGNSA
# T3 sequence (Q13231 22-466): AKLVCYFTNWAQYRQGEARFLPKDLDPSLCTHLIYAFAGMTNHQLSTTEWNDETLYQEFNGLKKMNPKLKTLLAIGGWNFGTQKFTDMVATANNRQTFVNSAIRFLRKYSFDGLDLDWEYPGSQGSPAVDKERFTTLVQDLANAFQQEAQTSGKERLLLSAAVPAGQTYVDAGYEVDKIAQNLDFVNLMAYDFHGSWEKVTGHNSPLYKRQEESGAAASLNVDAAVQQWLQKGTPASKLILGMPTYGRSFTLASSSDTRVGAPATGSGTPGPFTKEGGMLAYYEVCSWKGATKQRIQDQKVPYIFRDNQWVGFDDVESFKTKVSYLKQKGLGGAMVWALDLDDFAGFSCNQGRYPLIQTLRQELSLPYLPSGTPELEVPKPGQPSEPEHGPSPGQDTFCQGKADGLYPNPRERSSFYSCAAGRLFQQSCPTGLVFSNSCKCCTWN
SMILES,inhibition at 10 µM (SmChiA) [%],inhibition at 10 µM (OfChi-h [1]) [%],Ki (OfChi-h [1]) [nM],Ki (OfChi-h [2]) [nM],Ki (SmChiA) [nM],Improvement in inhibitory activity against OfChi-h (Ki) compared to 5a (OfChi-h [1]; 6a Ki versus 5a Ki),Ki (HsChit1) [nM]
Cc1cccn2c(=O)c3cc4c(=O)n(Cc5cnccn5)cnc4nc3nc12 [6c],91.5 ± 0.8,95.3 ± 0.5,294,,,,
Cc1cccn2c(=O)c3cc4c(=O)n(Cc5ccccc5)cnc4nc3nc12 [6d],32 ± 1.4,72.5 ± 2.4,1420,,,,
C#CCn1cnc2nc3nc4c(C)cccn4c(=O)c3cc2c1=O [6l],37.5 ± 2.2,81 ± 0.8,1340,,,,
Cc1cccn2c(=O)c3cc4c(=O)n(Cc5ccco5)cnc4nc3nc12 [6k],47.5 ± 1.2,86.8 ± 0.8,1510,,,,
Cc1cccn2c(=O)c3cc4c(=O)n(C(C)c5cccnc5)cnc4nc3nc12 (stereo not shown) [6b],88.7 ± 2.2,96.8 ± 0.1,215,,,,
Cc1cccn2c(=O)c3cc4c(=O)n(CCc5c[nH]c6ccccc56)cnc4nc3nc12 [6j],42.4 ± 4.1,49.6 ± 2.2,,,,,
COc1ccc(Cn2cnc3nc4nc5c(C)cccn5c(=O)c4cc3c2=O)cc1OC [6f],34.2 ± 2.5,69.3 ± 4.4,747,,,,
Cc1cccn2c(=O)c3cc4c(=O)n(Cc5cccc(N)c5)cnc4nc3nc12 [6h],37.9 ± 0.4,89 ± 1.5,276,,,,
Cc1cccn2c(=O)c3cc4c(=O)n(Cc5ccc(Cl)c(F)c5)cnc4nc3nc12 [6i],31.7 ± 0.2,42.9 ± 1,2890,,,,
COc1ccc(Cn2cnc3nc4nc5c(C)cccn5c(=O)c4cc3c2=O)cc1 [6g],30.3 ± 2.7,74 ± 2,1030,,,,
"Cc1cccn2c(=O)c3cc(C(=O)NCc4cccnc4)c(N)nc3nc12 [5a, reference compound]",,,,860,6190 ± 155,,
COc1cc(Cn2cnc3nc4nc5c(C)cccn5c(=O)c4cc3c2=O)cc(OC)c1OC [6e],28.2 ± 4.8,96.2 ± 0.3,65,,,,
Cc1cccn2c(=O)c3cc4c(=O)n(Cc5cccnc5)cnc4nc3nc12 [6a],98.5 ± 0.2,99.3 ± 0.2,58,,126,approximately 15 fold,295

# Source: PMC12239106, “Discovery of conformation constrained tetracyclic compounds as potent chitinase OfChi-h inhibitors with a novel binding mode” (Journal of Enzyme Inhibition and Medicinal Chemistry, 2025)
